According to patent US4269717A, “Boiler additives for oxygen scavenging” (priority 1980, dated 1981):

Columns and labels:
[1] = Carbohydrazide vs. hydrazine in oxygen removal, once-through apparatus (Table III); details: for % O2 Removal / Final O2: initial O2 7.7 ppm, 227-239° F., pH about 10.5
Method: A once-through experimental apparatus for simulating boiler water transport was utilized in this example. Water temperature in this example was maintained at about 227°-239° F. and pH at about 10.5.

[2] = Oxygen scavenging in heated copper coil apparatus (FIG. 1); details: 135° F.; pH 9.0; initial O2 7.7 ppm; corresponding scavenger:oxygen levels
Method: Another series of tests comparing hydrazine and carbohydrazide were carried out with the results presented in graphic form in FIG. 1. These tests were carried out at a temperature of 135° F. and a pH of 9.0 to prevent hydrolysis of the carbohydrazide.
The apparatus used including a reciprocating pump drawing water from a water reservoir and moving it through a heated copper coil at a rate of about 37 ml/minute. The coil was mounted in a cooling column and dissolved oxygen was measured at its outlet. The initial oxygen reading taken at this point for these tests was 7.7 ppm.
After the initial oxygen reading was taken, the scavenger being tested was injected into the feed line before the reciprocating pump.

NNC(=O)NN [Carbohydrazide, N, N' diaminourea]
% O2 Removal ([1]; ppm scavenger/ppm O2 0.05/1): 14.3% | Final O2 ([1]; ppm scavenger/ppm O2 0.05/1): 6.60 ppm | % O2 Removal ([1]; ppm scavenger/ppm O2 0.5/1): 57.4% | Final O2 ([1]; ppm scavenger/ppm O2 0.5/1): 3.28 ppm | % O2 Removal ([1]; ppm scavenger/ppm O2 5.0/1): 98.7% | Final O2 ([1]; ppm scavenger/ppm O2 5.0/1): 0.10 ppm | Amount needed for oxygen removal achieved with a given concentration of hydrazine ([1]; vs hydrazine, Table III): half as much | Oxygen scavenging relative to hydrazine [2]: superior to the hydrazine
